Test results taken from patent US12037324B2, “Biarylmethyl heterocycles” (Université de Montréal, priority 2016, dated 2024).

How the values were obtained:
hAT1R [1] = molecular target: T1, hAT1R (Homo sapiens, UniProt P30556); assay: cell-based; conditions: agonist mode; for EC50: read-out: BRET P63 EC50
T1 sequence (P30556 1-359): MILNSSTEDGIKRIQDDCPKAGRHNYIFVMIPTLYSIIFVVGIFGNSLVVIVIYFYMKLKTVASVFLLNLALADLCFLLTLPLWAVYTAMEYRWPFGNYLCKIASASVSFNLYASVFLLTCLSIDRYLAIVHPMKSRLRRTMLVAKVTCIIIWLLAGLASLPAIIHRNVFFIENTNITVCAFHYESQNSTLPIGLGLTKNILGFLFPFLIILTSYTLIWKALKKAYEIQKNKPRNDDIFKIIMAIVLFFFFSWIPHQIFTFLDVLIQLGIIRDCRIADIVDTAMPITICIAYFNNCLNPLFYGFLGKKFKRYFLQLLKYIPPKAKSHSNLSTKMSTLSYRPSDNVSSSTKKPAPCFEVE

hAT1R [2] = molecular target: T1, hAT1R; assay: cell-based
hAT1R [3] = molecular target: T1, hAT1R; assay: BRET β-arrestin2 biosensor assay, higher receptor expression (hAT1R 5 ng/well), HEK293 cells; type: cell-based; conditions: for EC50: High AT1R Expression
AGTR1 [4] = molecular target: T2, AGTR1 (Homo sapiens, UniProt P30556); assay: DiscoveRx β-arrestin2 recruitment assay (enzyme complementation, Pathunter CHO-K1 AGTR1 β-arrestin cell line); type: cell-based; conditions: for DiscoveRx β-arrestin2 Ymax (%): maximal response
T2 construct: host or cells: Pathunter CHO-K1 AGTR1 β-arrestin cell line (CHO-K1)
T2 sequence (P30556 1-359): T1 sequence (P30556 1-359)
Summary of the method: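 CHO-K1 cells expressing AGTR1 with β-arrestin2 enzyme-complementation reporter, plated 14-16 h ahead in 1% serum medium, then exposed to compounds for 90 min at 37° C. Chemiluminescence read after 1 h detection. EC50 (agonist) or IC50 (antagonist) from 4-parameter logistic fit; activity as percentage of All maximal effect.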

AGTR1 [5] = molecular target: T2, AGTR1; assay: DiscoveRx IP1 accumulation assay (HTRF), agonist mode, Pathunter CHO-K1 AGTR1 β-arrestin cell line; type: cell-based; conditions: for EC50: read-out: IP-1 EC50
Summary of the method: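 Agonist mode in CHO-K1 AGTR1 β-arrestin cells plated 14-16 h before; compounds at varying concentrations for 90 min at 37° C, IP1 accumulation read by HTRF (D2-conjugate and anti-IP1 cryptate, 20 min room temperature). EC50 from 4-parameter logistic fit; activity given as percentage of maximal AII effect.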

[6] = Low AT1R Expression, read-out: BRET β-Arrestin2 Low AT1R Expression EC50
[7] = DiscoveRx β-arrestin2 recruitment
[8] = section of the 42nd table ending at r951, example numbering restarts after the DiscoveRx section, read-out: β-arrestin2 EC50

Row | SMILES | BRET P63 Ymax (hAT1R [1]) | EC50 (hAT1R [1]) | BRET β-Arrestin2 Low AT1R Expression Ymax (%) (hAT1R [2]; Low AT1R Expression) | EC50 (hAT1R [2]; [6]) | BRET β-Arrestin2 High AT1R Expression Ymax (%) (hAT1R [3]) | EC50 (hAT1R [3]) | EC50 (AGTR1 [4]; [7]) | DiscoveRx β-arrestin2 Ymax (%) (AGTR1 [4]; [7]) | IP-1 Ymax (%) (AGTR1 [5]) | EC50 (AGTR1 [5]) | EC50 (hAT1R [2]; [8]) | EC50 (AGTR1 [4])
1 | CCc1nc2c(C)cc(C)nc2n1Cc1ccc(-c2cc(-c3ncc(C)s3)ccc2-c2nn[nH]n2)cc1 [Example 68] | 41.7% | 15 nM | 91.1% | 15.3 nM | – | – | – | – | – | – | – | –
2 | CCCCC1=NC2(CCCC2)C(=O)N1Cc1ccc(-c2cc(-c3cncc(C)c3)ccc2-c2nn[nH]n2)cc1 [Example 129] | – | – | – | > 10000 nM | 40.7% | 240 nM | 33.5 nM | 12.9% | 2.0% | 119 nM | – | –
3 | CCCCC1=NC2(CCCC2)C(=O)N1Cc1ccc(-c2cc(-c3cccc(C)n3)ccc2-c2nn[nH]n2)cc1 [Example 138] | – | – | – | > 10000 nM | 73.2% | 56.9 nM | 13.4 nM | 27.9% | 6.3% | 54.1 nM | – | –
4 | CC1=NC2(CCOCC2)C(=O)N1Cc1ccc(-c2cc(-c3cc(C)ccn3)ccc2-c2nn[nH]n2)cc1 [Example 173, 2-methyl-3-((5′-(4-methylpyridin-2-yl)-2′-(2H-tetrazol-5-yl)-[1,1′-biphenyl]-4-yl)methyl)-8-oxa-1,3-diazaspiro[4.5]dec-1-en-4-one] | 19.3% | 79.1 nM | – | – | – | – | – | – | – | – | 80.4 nM | –
5 | CCc1nc2c(C)cc(C)nc2n1Cc1ccc(-c2cc(-c3cccc(C)c3)ccc2C(=O)O)cc1 [Example 182] | – | – | – | – | 90.4% | 7 nM | 84.9 nM | 74.2% | 6.6% | 132 nM | 26.3 nM | –
6 | CCc1nc2c(C)cc(C)nc2n1Cc1ccc(-c2cc(C(=O)c3ccccc3)ccc2-c2nnn[nH]2)cc1 [Example 210, (4′-((2-Ethyl-5,7-dimethyl-3H-imidazo[4,5-b]pyridin-3-yl)methyl)-6-(1H-tetrazol-5-yl)-[1,1′-biphenyl]-3-yl)(phenyl)methanone] | – | – | – | – | 88.2% | 9 nM | 8.6 nM | 48.4% | 14.8% | 82.7 nM | 28.4 nM | –
7 | CCc1nc2c(C)cc(C)nc2n1Cc1ccc(-c2cc(-n3ccc(C(F)(F)F)n3)ccc2-c2nnn[nH]2)cc1 [Example 219] | – | – | – | – | – | – | 35.2 nM | 21.6% | 6.9% | 117 nM | 33.2 nM | –
8 | CCc1nc2c(C)cc(C)nc2n1Cc1ccc(-c2cc(-n3cncc3C)ccc2-c2nnn[nH]2)cc1 [Example 220] | 18.2% | 36.8 nM | – | – | – | – | – | – | – | – | 36 nM | –
9 | CCc1nc2c(C)cc(C)nc2n1Cc1ccc(-c2cc(-n3cnc(C)c3)ccc2-c2nnn[nH]2)cc1 [Example 221] | 5.4% | 28 nM | – | – | – | – | – | – | – | – | 159 nM | –
10 | CCc1nc2c(C)cc(C)nc2n1Cc1ccc(-c2cc(Oc3cccnc3)ccc2-c2noc(=O)[nH]2)cc1 [Example 259] | – | – | – | – | 83.2% | 6.9 nM | 12.9 nM | 80.6% | 9.9% | 21.1 nM | 38.8 nM | –
11 | Cc1ccnc(-c2ccc(-c3nn[nH]n3)c(-c3ccc(Cn4nc(C)nc4C)cc3)c2)c1 [Example 458, 2-(4′-((3,5-Dimethyl-1H-1,2,4-triazol-1-yl)methyl)-6-(2H-tetrazol-5-yl)-[1,1′-biphenyl]-3-yl)-4-methylpyridine] | – | – | – | – | – | – | – | – | – | – | 385 nM | 253 nM
12 | Cc1cnn(-c2ccc(-c3nn[nH]n3)c(-c3ccc(Cn4cnnc4C)cc3)c2)c1 [Example 459, 5-(5-(4-Methyl-1H-pyrazol-1-yl)-4′-((3-methyl-4H-1,2,4-triazol-4-yl)methyl)-[1,1′-biphenyl]-2-yl)-2H-tetrazole] | – | – | – | – | – | – | – | – | – | – | 1240 nM | > 10000 nM
